Reference: patent publication US11427586B2, “1,2,4-oxadiazole derivatives as liver X receptor agonists” (NOVARTIS AG, priority 2019, dated 2022)
Where two headings read alike, the source gives them in different places.

Legend:
SCD1 = test: Measurement of SCD1 expression in SZ95-SCD1-HiBit cells (HiBiT assay); assay type: cell-based; conditions: Homo sapiens, 48 h; for EC50: SCD1 protein production, luminescence, initial dilution 1:3 in DMSO, read-out: HiBit EC50
Text: Measurement of SCD1 Expression in SZ95-SCD1-HiBit Cells
SCD1 expression levels in SZ95 cells were quantitated using the HiBiT system (Promega) in which a small peptide sequence (SmBiT) with a larger protein (LgBiT) reconstitutes luciferase activity and can generate a luminescent signal used for quantitation. SZ95-SCD1-HiBit cells were generated by editing the SCD1 gene of SZ95 cells resulting in the addition of an 8 amino acid linker sequence (gssggssg, SEQ ID NO:1) followed by an 11-amino acid SmBiT sequence (vsgwrlfkkis, SEQ ID NO:2) at the carboxy-terminus of the SCD1 protein. The gRNA targeting sequence used was […] (SEQ ID NO: 3) and the SCD1 insertion oligonucleotide encoding the SmBiT sequence was:
SZ95-SCD1-HiBit cells were seeded in 384-well cell culture white plates at a density of 3000 cells/30 μl. Water was added to edge wells to avoid evaporation. Cells were incubated in a humidified incubator with 5% CO2 at 37° C. overnight. Tested compounds were diluted at a ratio of 1:3 in DMSO using an Agilent BRAVO Automated Liquid Handling Platform and, after further serial dilutions, added to cells at final concentrations starting from 18 μM. 2-(3-(3-((2-chloro-3-(trifluoromethyl)benzyl)(2,2-diphenylethyl)amino)propoxy)phenyl)acetic acid was used as a reference compound in each plate. Cells in the assay plate were incubated in a humidified incubator with 5% CO2 at 37° C. for 48 h.
The assay plates were removed from the incubator and allowed to equilibrate to room temperature. Nano-Glo® HiBiT Detection Reagent (Promega; a mixture of Nano-Glo HiBiT Detection Buffer, Nano-Glo HiBiT Detection Substrate, and LgBiT protein, according to the manufacturer's instructions) was added into assay plates, at a volume equal to cell culture medium in each well. Plates were placed on an orbital shaker at a speed of 300-600 rpm for 10 min at room temperature, and read on an EnVision Plate Reader using luminescence detection with a 1 second read time.
The assay measures the increase in SCD1 protein production in vitro. Amax refers to the percent EC50 of the tested compound compared to a reference compound, 2-(3-(3-((2-chloro-3-(trifluoromethyl)benzyl)(2,2-diphenylethyl)amino)propoxy)phenyl)acetic acid.

SZ95 sebocytes = test: Sentinel Lipid Assay (SLA), desaturation index in SZ95 sebocytes; assay type: cell-based; conditions: Homo sapiens, 72 h; for EC50: desaturation index, lowest dose used 4.6 nM, read-out: SLA EC50
Description: Sentinel Lipid Assay (SLA)
The sentinel lipid assay was used quantify the change in the global desaturation index in SZ95 sebocytes upon administration of certain LXR agonist compounds provided herein. The assay measures a smaller subset of lipid analytes in meibum (termed “sentinel lipids”) which would model the global changes the population of both saturated and desaturated lipids in the cells. In order to define this smaller subset of lipids, a complete lipid profile was recorded on dose response curves (eight levels from 4 nM to 10 uM) of Compounds 1-72. An elastic net regression model was applied separately to both the saturated and desaturated lipids to determine the minimum combination of coefficients and analytes, which could be used to adequately model the total population of lipids. The elastic net model was able to reduce the behavior of 425 lipids to 11 lipids and the correlation between the desaturation indices observed using the complete set of lipids with from the 11 sentinel lipids was 0.96.
A medium throughput assay was created using this reduced set of sentinel lipids. A single batch is defined as triplicate examples of three unique plates (i.e., a single batch of cells is used to create nine plates for LC-MSMS analysis). Lipids were extracted from the cells using a 1:1 mixture of methylene chloride/methanol containing 10 nM of deuterated standards of triglycerides, which are used as internal standards for quantitating the lipid abundance. The lipids were separated prior to mass spectrometric analysis using a five minute HPLC gradient. The abundance of the sentinel lipids and the internal standards are measured using multiple reaction monitor mode (MRM) on a triple quadrupole mass spectrometer. The data was transformed from total ion current to nmoles/10^6 cells, which are multiplied by the coefficients from the elastic net model to determine the effective desaturated and saturated content, and therein the desaturation index of the dosed cells. In order to compare compounds from multiple batches with one another, the measure raw desaturation index was normalized by dividing it by the desaturation index of the DMSO dosed cells, and all data was assessed as the fraction by which the compound increases the desaturation index above 1.
SZ95 (immortalized human sebaceous gland cells) cells were seeded in Greiner bio-one 96-well polypropylene plates that were pre-treated with 50 μg/mL Human Plasma Fibronectin (Thermo Fisher Scientific) at a density of 10^4 cells/135 μl. Cells were incubated in a humidified incubator with 5% CO2 at 37° C. overnight. Test compounds were diluted at a ratio of 1:3 and added to cells at final concentrations starting from 10 μM. 2-(3-(3-((2-chloro-3-(trifluoromethyl)benzyl)(2,2-diphenylethyl)amino)propoxy)phenyl)acetic acid was used as a positive control reference compound in each plate. Cells in the assay plate were incubated in a humidified incubator with 5% CO2 at 37° C. for 72 h.
Culture medium was removed from the cells and cells in culture plates were washed with ice cold phosphate buffered saline three times. Plates were heat sealed and stored in a −80° C. freezer prior to Sentinel lipid assay. The Amax value refers to the percent EC50 of the tested compound compared to a reference compound, 2-(3-(3-((2-chloro-3-(trifluoromethyl)benzyl)(2,2-diphenylethyl)amino)propoxy)phenyl)acetic acid.

[1] = normalized Amax based on the reference compound Amax of 100%, read-out: HiBit Normalized Amax
[2] = SZ95-SCD1-HiBit cells, compared to reference compound, read-out: HiBit Amax
[3] = normalized Amax based on the reference compound Amax of 100%, read-out: SLA Normalized Amax
[4] = SZ95 cells, compared to reference compound, read-out: SLA Amax

| SMILES | EC50 (SCD1; SZ95-SCD1-HiBit cells) [nM] | EC50 (SZ95 sebocytes; SZ95 cells) [nM] | Emax (SCD1; [1]) [%] | Emax (SCD1; [2]) [%] | Emax (SZ95 sebocytes; [3]) [%] | Emax (SZ95 sebocytes; [4]) [%] |
| --- | --- | --- | --- | --- | --- | --- |
| CC(C)CS(=O)(=O)c1ccccc1Oc1ccc(-c2noc(CN3C(=O)N(CCC4(O)CCOCC4)C(C)(C)C3=O)n2)cc1C(F)(F)F [Compound 6, 1-(2-(4-hydroxytetrahydro-2H-pyran-4-yl)ethyl)-3-((3-(4-(2-(isobutylsulfonyl)phenoxy)-3-(trifluoromethyl)phenyl)-1,2,4-oxadiazol-5-yl)methyl)-5,5-dimethylimidazolidine-2,4-dione] | 43.6 | 37.5 | 69.8 | 66.4 | 101 | 96.7 |
| CC(C)(C)c1ccccc1Oc1ccc(-c2noc(CN3C(=O)N(CCC4CCOCC4)C4(CCN(C5CCC5)CC4)C3=O)n2)cc1C(F)(F)F [Compound 7, 3-((3-(4-(2-(tert-butyl)phenoxy)-3-(trifluoromethyl)phenyl)-1,2,4-oxadiazol-5-yl)methyl)-8-cyclobutyl-1-(2-(tetrahydro-2H-pyran-4-yl)ethyl)-1,3,8-triazaspiro[4.5]decane-2,4-dione] | 0.128 | ≤ 4.6 | 90 | 85.6 | 110 | 105 |
| CC(C)CS(=O)(=O)c1ccccc1Oc1ccc(-c2noc(CN3C(=O)N(CCN4CCOCC4)C4(CCNCC4)C3=O)n2)cc1C(F)(F)F [Compound 9, 3-((3-(4-(2-(isobutylsulfonyl)phenoxy)-3-(trifluoromethyl)phenyl)-1,2,4-oxadiazol-5-yl)methyl)-1-(2-morpholinoethyl)-1,3,8-triazaspiro[4.5]decane-2,4-dione] | 3.3 | ≤ 4.6 | 98.1 | 93.3 | 147 | 142 |
| CC(COc1ccc(-c2noc(CN3C(=O)N(CCN4CCOCC4)C4(CCN(C5CCC5)CC4)C3=O)n2)cc1C(F)(F)F)(C(F)(F)F)C(F)(F)F [Compound 14, 8-cyclobutyl-1-(2-morpholinoethyl)-3-((3-(4-(3,3,3-trifluoro-2-methyl-2-(trifluoromethyl)propoxy)-3-(trifluoromethyl)phenyl)-1,2,4-oxadiazol-5-yl)methyl)-1,3,8-triazaspiro[4.5]decane-2,4-dione] | 0.241 | ≤ 4.6 | 91 | 86.5 | 130 | 125 |

These reach a lower EC50 (SCD1; SZ95-SCD1-HiBit cells). Values come first.

| EC50 (SCD1; SZ95-SCD1-HiBit cells) [nM] | EC50 (SZ95 sebocytes; SZ95 cells) [nM] | SMILES | Emax (SCD1; [1]) [%] | Emax (SCD1; [2]) [%] | Emax (SZ95 sebocytes; [3]) [%] | Emax (SZ95 sebocytes; [4]) [%] |
| --- | --- | --- | --- | --- | --- | --- |
| 0.116 | ≤ 4.6 | CC(C)(C)c1ccccc1Oc1ccc(-c2noc(CN3C(=O)N(CCN4CCOCC4)C4(CCN(C5CCC5)CC4)C3=O)n2)cc1C(F)(F)F [Compound 16, 3-((3-(4-(2-(tert-butyl)phenoxy)-3-(trifluoromethyl)phenyl)-1,2,4-oxadiazol-5-yl)methyl)-8-cyclobutyl-1-(2-morpholinoethyl)-1,3,8-triazaspiro[4.5]decane-2,4-dione] | 94.8 | 90.2 | 146 | 140 |
| 0.102 | ≤ 4.6 | O=C1N(Cc2nc(-c3ccc(Oc4ccccc4C(F)(F)F)c(C(F)(F)F)c3)no2)C(=O)C2(CCN(C3CCC3)CC2)N1CCN1CCOCC1 [Compound 13, 8-cyclobutyl-1-(2-morpholinoethyl)-3-((3-(3-(trifluoromethyl)-4-(2-(trifluoromethyl)phenoxy)phenyl)-1,2,4-oxadiazol-5-yl)methyl)-1,3,8-triazaspiro[4.5]decane-2,4-dione] | 82.2 | 78.2 | 94.5 | 90.7 |
| 0.101 | ≤ 4.6 | CS(=O)(=O)c1ccccc1Oc1ccc(-c2noc(CN3C(=O)N(CCN4CCOCC4)C4(CCN(C5CCC5)CC4)C3=O)n2)cc1C(F)(F)F [Compound 15, 8-cyclobutyl-3-((3-(4-(2-(methylsulfonyl)phenoxy)-3-(trifluoromethyl)phenyl)-1,2,4-oxadiazol-5-yl)methyl)-1-(2-morpholinoethyl)-1,3,8-triazaspiro[4.5]decane-2,4-dione] | 88.3 | 84 | 121 | 116 |
| 0.081 | ≤ 4.6 | O=C1N(Cc2nc(-c3ccc(Oc4ccccc4C(F)(F)F)c(C(F)(F)F)c3)no2)C(=O)C2(CCN(C3CCC3)CC2)N1CCC1CCOCC1 [Compound 12, 8-cyclobutyl-1-(2-(tetrahydro-2H-pyran-4-yl)ethyl)-3-((3-(3-(trifluoromethyl)-4-(2-(trifluoromethyl)phenoxy)phenyl)-1,2,4-oxadiazol-5-yl)methyl)-1,3,8-triazaspiro[4.5]decane-2,4-dione] | 81.9 | 77.9 | 130 | 125 |
| 0.079 | ≤ 4.6 | CC(C)CS(=O)(=O)c1ccccc1Oc1ccc(-c2noc(CN3C(=O)N(CCN4CCOCC4)C4(CCN(C)CC4)C3=O)n2)cc1C(F)(F)F [Compound 10, 3-((3-(4-(2-(isobutylsulfonyl)phenoxy)-3-(trifluoromethyl)phenyl)-1,2,4-oxadiazol-5-yl)methyl)-8-methyl-1-(2-morpholinoethyl)-1,3,8-triazaspiro[4.5]decane-2,4-dione] | 111 | 106 | 129 | 124 |
| 0.058 | ≤ 4.6 | CC(C)N(C)S(=O)(=O)c1ccccc1Oc1ccc(-c2noc(CN3C(=O)N(CCN4CCOCC4)C4(CCN(C5CCC5)CC4)C3=O)n2)cc1C(F)(F)F [Compound 11, 2-(4-(5-((8-cyclobutyl-1-(2-morpholinoethyl)-2,4-dioxo-1,3,8-triazaspiro[4.5]decan-3-yl)methyl)-1,2,4-oxadiazol-3-yl)-2-(trifluoromethyl)phenoxy)-N-isopropyl-N-methylbenzenesulfonamide] | 95.9 | 91.2 | 140 | 134 |
| 0.056 | ≤ 4.6 | CC(C)N(C)S(=O)(=O)c1ccccc1Oc1ccc(-c2noc(CN3C(=O)N(CCC4CCOCC4)C(C)(C)C3=O)n2)cc1C(F)(F)F [Compound 5, 2-(4-(5-((4,4-dimethyl-2,5-dioxo-3-(2-(tetrahydro-2H-pyran-4-yl)ethyl)imidazolidin-1-yl)methyl)-1,2,4-oxadiazol-3-yl)-2-(trifluoromethyl)phenoxy)-N-isopropyl-N-methylbenzenesulfonamide] | 87.7 | 83.4 | 152 | 146 |
